Legend:
[1] = Solid form stability: XRPD re-analysis after drying under vacuum and after storage at 40° C./75% RH; assay type: physicochemical; conditions: for hygroscopicity properties: overall assessment in words; for XRPD form after drying and storage: after drying at 40° C. under vacuum and storage at 40° C./75% RH
Description: XRPD analysis was carried out on a PANalytical X'pert pro with PIXcel detector (128 channels), scanning the samples between 3 and 35° 2θ. The material was gently ground to release any agglomerates and loaded onto a multi-well plate with Kapton or Mylar polymer film to support the sample. The multi-well plate was then placed into the diffractometer and analysed using Cu K radiation (α1 λ=1.54060 Å; α2=1.54443 Å; β=1.39225 Å; α1: α2 ratio=0.5) running in transmission mode (step size 0.0130° 2θ, step time 18.87s) using 40 kV/40 mA generator settings. Data were visualized and images generated using the HighScore Plus 4.7 desktop application (PANalytical, 2017).
Solutions were allowed to evaporate at ambient temperature (ca. 20° C.) and pressure. Potential salts were dried at 40° C. under vacuum for ca. 19 h and re-analyzed by XRPD then stored at 40° C./75% RH for ca. 19 h and re-analyzed by XRPD.

[2] = counterion acid; cited from earlier work
[3] = 7 days storage stability of dihydrogenphosphate polymorphs (HPLC purity); conditions: for stability (comparison of polymorphs, in words): Pattern 3 compared with Pattern 1 and Pattern 2
[4] = storage at 40° C./75% RH, ca. 19 h
[5] = after drying at 40° C. under vacuum

C=CCOc1ccccc1OC[C@@H](O)CNC(C)C.CC(=O)O [Acetate Pattern 2]
Observation after storage at 40° C./75% RH ([1]; material from THF): partially deliquesce
XRPD result after storage at 40° C./75% RH ([1]; material from acetone): Pattern 2 peaks remained
Observation after storage at 40° C./75% RH ([1]; material from acetone, ethyl acetate and t-BME): deliquesced
XRPD result after storage at 40° C./75% RH ([1]; material from ethyl acetate and t-BME): Predominantly amorphous material was obtained

O=S(=O)(O)c1ccccc1 [Benzenesulfonic acid]
pKa1 [2]: 0.7

CC1(C)C2CCC1(CS(=O)(=O)O)C(=O)C2 (stereo not shown) [Camphorsulfonic acid]
pKa1 [2]: 2.2

O=C(O)[C@H](O)[C@@H](O)[C@H](O)[C@H](O)CO [D-Gluconic acid]
pKa1 [2]: 3.8

O=S(=O)(O)CCS(=O)(=O)O [Ethane-1,2-disulfonic acid]
pKa1 [2]: −2.1
pKa2 [2]: −1.5

CCS(=O)(=O)O [Ethanesulfonic acid]
pKa1 [2]: 2.1

O=C(O)CCCC(=O)O [Glutaric acid]
pKa1 [2]: 4.34

O=C(O)CNC(=O)c1ccccc1 [Hippuric acid]
pKa1 [2]: 3.6

O=S(=O)(O)c1cccc2c(S(=O)(=O)O)cccc12 [Naphthalene-1,5-disulfonic acid]
pKa1 [2]: −3.4
pKa2 [2]: −2.6

C=CCOc1ccccc1OC[C@@H](O)CNC(C)C.O=C(O)C(=O)O [Oxalate Pattern 1 & 2, S-oxprenolol oxalate]
Observation after storage at 40° C./75% RH [1, 4]: predominantly unchanged

O=C(O)c1cc2ccccc2c(Cc2c(O)c(C(=O)O)cc3ccccc23)c1O [Pamoic acid]
pKa1 [2]: 2.5
pKa2 [2]: 3.1

O=C(O)c1ccccc1C(=O)O [Phthalic acid]
pKa1 [2]: 2.89
pKa2 [2]: 5.51

C=CCOc1ccccc1OC[C@@H](O)CNC(C)C.O=P(O)(O)O [S-oxprenolol dihydrogenphosphate Pattern 1]
stability (comparison of polymorphs, in words) [3]: issues with stability
XRPD form after stress ([1]; after heating to 40° C., drying at ambient temperature (ca. 20° C.) under vacuum and storage at 40° C./75% RH): dihydrogenphosphate Pattern 1 to remain

C=CCOc1ccccc1OC[C@@H](O)CNC(C)C.O=P(O)(O)O [S-oxprenolol dihydrogenphosphate Pattern 2]
stability (comparison of polymorphs, in words) [3]: issues with stability
XRPD form after drying ([1]; dried under vacuum at ambient temperature (ca. 20° C.) for ca. 69 h, precipitated from ethanol/heptane): phosphate Pattern 3 was obtained after drying
XRPD form after drying ([1]; isolated from temperature cycling in 1-butanol, after drying): converted to phosphate Pattern 3

C=CCOc1ccccc1OC[C@@H](O)CNC(C)C.O=P(O)(O)O [S-oxprenolol dihydrogenphosphate Pattern 3]
stability (comparison of polymorphs, in words) [3]: improved stability
HPLC purity following storage ([3]; after 7 days storage at 40° C./75% RH): > 99.9 % area
HPLC purity following storage ([3]; after 7 days storage at ambient temperature): > 99.9 % area

C=CCOc1ccccc1OC[C@@H](O)CNC(C)C.CC(=O)O [acetate salt]
hygroscopicity properties [1]: poor

C=CCOc1ccccc1OC[C@@H](O)CNC(C)C.O=C(O)CNC(=O)c1ccccc1 [hippurate Pattern 1]
XRPD form after drying [1, 5]: hippurate Pattern 1 was retained
hygroscopicity properties [1]: poor
Observation after storage at 40° C./75% RH [1, 4]: deliquescence was observed to amorphous materials

C=CCOc1ccccc1OC[C@@H](O)CNC(C)C.O=C(O)C(=O)O [oxalate Pattern 1, S-oxprenolol oxalate]
XRPD form after drying and storage [1]: oxalate Pattern 1 was retained

C=CCOc1ccccc1OC[C@@H](O)CNC(C)C.O=C(O)C(=O)O [oxalate Pattern 2, S-oxprenolol oxalate]
XRPD form after drying [1, 5]: a mixture of Pattern 1 and 2 was obtained

C=CCOc1ccccc1OC[C@@H](O)CNC(C)C.O=C(O)c1ccc2ccccc2c1O [xinafoate Pattern 1]
XRPD form after drying and storage [1]: xinafoate Pattern 1 was retained
